These results are taken from patent US10787452B2 (Vertex Pharmaceuticals Incorporated, priority 2012, dated 2020).

This test relates to HCT116 colorectal cancer cells. Put plainly: Cisplatin sensitization assay (96 h cell viability MTS).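 Note: compound concentration needed to lower the Cisplatin-alone IC50 by a set fold.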 The note with it: 96 h MTS, compound plus Cisplatin. The format is cell-based. Put shortly:
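Simultaneous addition of compound and cisplatin (2-fold series, top 10 μM final, full matrix), followed by 96 h culture at 37° C/5% CO2 and a 1 h MTS viability read.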

On to `CNCCc1cnn(-c2ccncc2NC(=O)c2c(N)nn3cc(F)cnc23)c1` [I-N-8, 2-amino-6-fluoro-N-(4-(4-(2-(methylamino)ethyl)-1H-pyrazol-1-yl)pyridin-3-yl)pyrazolo[1,5-a]pyrimidine-3-carboxamide], for which the “Cisplatin Sensitization Assay” value was “+ (Compounds with a Cisplatin sensitization value >0.2 μM but <5 μM are marked with “+.”)”. Then `Nc1nn2cc(F)cnc2c1C(=O)Nc1cncc(F)c1N1CCN2CCOC[C@H]2C1` [I-N-135, (R)-2-amino-6-fluoro-N-(5-fluoro-4-(hexahydropyrazino[2,1-c][1,4]oxazin-8(1H)-yl)pyridin-3-yl)pyrazolo[1,5-a]pyrimidine-3-carboxamide], with “+++ (Compounds with a Cisplatin sensitization value of <0.02 μM are marked with “+++.”)”; and `Nc1nn2cc(F)cnc2c1C(=O)Nc1cncc(F)c1N1CCC(C(=O)N2CCN3CCCC3C2)CC1` (stereo not shown) [I-G-10, 2-amino-6-fluoro-N-(5-fluoro-4-(4-(octahydropyrrolo[1,2-a]pyrazine-2-carbonyl)piperidin-1-yl)pyridin-3-yl)pyrazolo[1,5-a]pyrimidine-3-carboxamide], with “+++ (Compounds with a Cisplatin sensitization value of <0.02 μM are marked with “+++.”)”; and `COCCN1CCN(c2ccncc2NC(=O)c2c(N)nn3cc(Cl)cnc23)CC1` [I-N-60, 2-amino-6-chloro-N-(4-(4-(2-methoxyethyl)piperazin-1-yl)pyridin-3-yl)pyrazolo[1,5-a]pyrimidine-3-carboxamide], with “+++ (Compounds with a Cisplatin sensitization value of <0.02 μM are marked with “+++.”)”. Then `Cn1ccnc1-c1ccncc1NC(=O)c1c(N)nn2cc(F)cnc12` [I-C-55, 2-amino-6-fluoro-N-(4-(1-methyl-1H-imidazol-2-yl)pyridin-3-yl)pyrazolo[1,5-a]pyrimidine-3-carboxamide], with “+ (Compounds with a Cisplatin sensitization value >0.2 μM but <5 μM are marked with “+.”)”; and `CS(=O)(=O)C1CN(C(=O)C2CCN(c3c(F)cncc3NC(=O)c3c(N)nn4cc(F)cnc34)CC2)C1` [I-G-86, 2-amino-6-fluoro-N-(5-fluoro-4-(4-(3-(methylsulfonyl)azetidine-1-carbonyl)piperidin-1-yl)pyridin-3-yl)pyrazolo[1,5-a]pyrimidine-3-carboxamide], with “+++ (Compounds with a Cisplatin sensitization value of <0.02 μM are marked with “+++.”)”; and `Nc1nn2cc(Cl)cnc2c1C(=O)Nc1cnccc1N1CCn2cncc2C1` [I-N-75, 2-amino-6-chloro-N-(4-(5,6-dihydroimidazo[1,5-a]pyrazin-7(8H)-yl)pyridin-3-yl)pyrazolo[1,5-a]pyrimidine-3-carboxamide], with “+++ (Compounds with a Cisplatin sensitization value of <0.02 μM are marked with “+++.”)”. For the compound `CC1(N2CCN(C(=O)C3CCN(c4c(F)cncc4NC(=O)c4c(N)nn5cc(F)cnc45)CC3)CC2)COC1` [I-G-92, 2-amino-6-fluoro-N-(5-fluoro-4-(4-(4-(3-methyloxetan-3-yl)piperazine-1-carbonyl)piperidin-1-yl)pyridin-3-yl)pyrazolo[1,5-a]pyrimidine-3-carboxamide], the “Cisplatin Sensitization Assay” value is listed as “+++ (Compounds with a Cisplatin sensitization value of <0.02 μM are marked with “+++.”)”. For `Nc1nn2cc(Cl)cnc2c1C(=O)Nc1cnccc1N1CCC(N2CCC3(COC3)C2)CC1` [I-N-99, N-(4-(4-(2-oxa-6-azaspiro[3.4]octan-6-yl)piperidin-1-yl)pyridin-3-yl)-2-amino-6-chloropyrazolo[1,5-a]pyrimidine-3-carboxamide] the value was “+++ (Compounds with a Cisplatin sensitization value of <0.02 μM are marked with “+++.”)”; for `Nc1nn2cc(F)cnc2c1C(=O)Nc1cnccc1N1CCN2C(=O)OCC2C1` (stereo not shown) [I-N-238, 2-amino-6-fluoro-N-(4-(3-oxotetrahydro-1H-oxazolo[3,4-a]pyrazin-7(3H)-yl)pyridin-3-yl)pyrazolo[1,5-a]pyrimidine-3-carboxamide], “++ (Compounds with a Cisplatin sensitization value >0.02 μM but <0.2 μM are marked with “++.”)”.

As to `CC(=O)N1CC2(CCN(c3ccncc3NC(=O)c3c(N)nn4cc(F)cnc34)CC2)C1` [I-N-251, N-(4-(2-acetyl-2,7-diazaspiro[3.5]nonan-7-yl)pyridin-3-yl)-2-amino-6-fluoropyrazolo[1,5-a]pyrimidine-3-carboxamide], the “Cisplatin Sensitization Assay” value is listed as “+++ (Compounds with a Cisplatin sensitization value of <0.02 μM are marked with “+++.”)”. With `N#CCc1cnc2c(C(=O)Nc3cnccc3OCCN)c(N)nn2c1` [I-O-83, 2-amino-N-(4-(2-aminoethoxy)pyridin-3-yl)-6-(cyanomethyl)pyrazolo[1,5-a]pyrimidine-3-carboxamide], the “Cisplatin Sensitization Assay” value is recorded as “+++ (Compounds with a Cisplatin sensitization value of <0.02 μM are marked with “+++.”)”. Then `C[C@H]1CN(C(=O)C2CCN(c3c(F)cncc3NC(=O)c3c(N)nn4cc(F)cnc34)CC2)CCN1C` [I-G-47, (S)-2-amino-N-(4-(4-(3,4-dimethylpiperazine-1-carbonyl)piperidin-1-yl)-5-fluoropyridin-3-yl)-6-fluoropyrazolo[1,5-a]pyrimidine-3-carboxamide], with “+++ (Compounds with a Cisplatin sensitization value of <0.02 μM are marked with “+++.”)”; and `Nc1nn2cc(F)cnc2c1C(=O)Nc1cncc(Cl)c1N1CCC(C(=O)N2CCNCC2)CC1` [I-G-48, 2-amino-N-(5-chloro-4-(4-(piperazine-1-carbonyl)piperidin-1-yl)pyridin-3-yl)-6-fluoropyrazolo[1,5-a]pyrimidine-3-carboxamide], with “+++ (Compounds with a Cisplatin sensitization value of <0.02 μM are marked with “+++.”)”. For `Nc1nn2cc(F)cnc2c1C(=O)Nc1cnccc1O[C@H]1Cc2nccn2C1` [I-O-16, (S)-2-amino-N-(4-((6,7-dihydro-5H-pyrrolo[1,2-a]imidazol-6-yl)oxy)pyridin-3-yl)-6-fluoropyrazolo[1,5-a]pyrimidine-3-carboxamide], the “Cisplatin Sensitization Assay” value is “+++ (Compounds with a Cisplatin sensitization value of <0.02 μM are marked with “+++.”)”. For the compound `N#CCc1cnc2c(C(=O)Nc3cnccc3Oc3ccccc3)c(N)nn2c1` [I-O-25, 2-amino-6-(cyanomethyl)-N-(4-phenoxypyridin-3-yl)pyrazolo[1,5-a]pyrimidine-3-carboxamide], the “Cisplatin Sensitization Assay” value is reported as “+++ (Compounds with a Cisplatin sensitization value of <0.02 μM are marked with “+++.”)”. Turning to `Nc1nn2cc(F)cnc2c1C(=O)Nc1cncc(F)c1N1CCC(C(=O)N2CCC(N3CCCCC3)CC2)CC1` [I-G-60, N-(4-(4-([1,4′-bipiperidine]-1′-carbonyl)piperidin-1-yl)-5-fluoropyridin-3-yl)-2-amino-6-fluoropyrazolo[1,5-a]pyrimidine-3-carboxamide], the “Cisplatin Sensitization Assay” value is reported as “+++ (Compounds with a Cisplatin sensitization value of <0.02 μM are marked with “+++.”)”. As for `Nc1nn2cc(F)cnc2c1C(=O)Nc1cncc(Cl)c1N1CCCC1` [I-N-281, 2-amino-N-(5-chloro-4-(pyrrolidin-1-yl)pyridin-3-yl)-6-fluoropyrazolo[1,5-a]pyrimidine-3-carboxamide], the “Cisplatin Sensitization Assay” value is “+++ (Compounds with a Cisplatin sensitization value of <0.02 μM are marked with “+++.”)”. On to `COC(=O)[C@H]1CC[C@H](Oc2ccncc2NC(=O)c2c(N)nn3cc(F)cnc23)CC1` [I-O-13, (1r,4r)-methyl 4-((3-(2-amino-6-fluoropyrazolo[1,5-a]pyrimidine-3-carboxamido)pyridin-4-yl)oxy)cyclohexanecarboxylate], for which the “Cisplatin Sensitization Assay” value was “+++ (Compounds with a Cisplatin sensitization value of <0.02 μM are marked with “+++.”)”. For `Nc1nn2cc(Cl)cnc2c1C(=O)Nc1cnccc1O[C@H]1CCOC1` [I-O-58, (S)-2-amino-6-chloro-N-(4-((tetrahydrofuran-3-yl)oxy)pyridin-3-yl)pyrazolo[1,5-a]pyrimidine-3-carboxamide] the value was “+++ (Compounds with a Cisplatin sensitization value of <0.02 μM are marked with “+++.”)”.

On to `Nc1nn2cc(F)cnc2c1C(=O)Nc1cnccc1-c1ccc(C(=O)N2CCN3CCC2CC3)cc1` [I-C-48, N-(4-(4-(1,4-diazabicyclo[3.2.2]nonane-4-carbonyl)phenyl)pyridin-3-yl)-2-amino-6-fluoropyrazolo[1,5-a]pyrimidine-3-carboxamide], for which the “Cisplatin Sensitization Assay” value is on record as “+++ (Compounds with a Cisplatin sensitization value of <0.02 μM are marked with “+++.”)”. Then `CN1C2CCC1CN(C(=O)C1CCN(c3c(F)cncc3NC(=O)c3c(N)nn4cc(F)cnc34)CC1)C2` [I-G-52, 2-amino-6-fluoro-N-(5-fluoro-4-(4-(8-methyl-3,8-diazabicyclo[3.2.1]octane-3-carbonyl)piperidin-1-yl)pyridin-3-yl)pyrazolo[1,5-a]pyrimidine-3-carboxamide], with “+++ (Compounds with a Cisplatin sensitization value of <0.02 μM are marked with “+++.”)”; and `CN1CCC(C(=O)N2CCN(c3c(F)cncc3NC(=O)c3c(N)nn4cc(F)cnc34)CC2)C1` (stereo not shown) [I-N-156, 2-amino-6-fluoro-N-(5-fluoro-4-(4-(1-methylpyrrolidine-3-carbonyl)piperazin-1-yl)pyridin-3-yl)pyrazolo[1,5-a]pyrimidine-3-carboxamide], with “+++ (Compounds with a Cisplatin sensitization value of <0.02 μM are marked with “+++.”)”.

`Cc1nnc(N2CCN(c3ccncc3NC(=O)c3c(N)nn4cc(F)cnc34)CC2)o1` [I-N-256, 2-amino-6-fluoro-N-(4-(4-(5-methyl-1,3,4-oxadiazol-2-yl)piperazin-1-yl)pyridin-3-yl)pyrazolo[1,5-a]pyrimidine-3-carboxamide]: the “Cisplatin Sensitization Assay” value was “++ (Compounds with a Cisplatin sensitization value >0.02 μM but <0.2 μM are marked with “++.”)”. Then `CC1(N2CCN(c3ccncc3NC(=O)c3c(N)nn4cc(F)cnc34)CC2)COC1` [I-N-62, 2-amino-6-fluoro-N-(4-(4-(3-methyloxetan-3-yl)piperazin-1-yl)pyridin-3-yl)pyrazolo[1,5-a]pyrimidine-3-carboxamide], with “++ (Compounds with a Cisplatin sensitization value >0.02 μM but <0.2 μM are marked with “++.”)”.
